Reference: patent publication US10154957B2, “Microneedle device having a peptide therapeutic agent and an amino acid and methods of making and using the same” (3M INNOVATIVE PROPERTIES COMPANY, priority 2011, dated 2018)

Test: Percent purity of PTHrP analogue (20 mg/mL formulations) in coating on flood-coated arrays stored at 40° C./96% RH (HPLC)
Format: physicochemical
Conditions: peptide 20 mg/mL in PBS
Experimental: The protein or polypeptide content in the formulation coated on the microneedle arrays was determined using an Agilent 1100 HPLC system (Agilent Technologies, Wilmington, Del.) equipped with a binary pump, well-plated thermostated autosampler, thermostated column compartment, and a diode array UV detector. A Zorbax 300SB-C8 column (Agilent Technologies, Wilmington, Del.) having a 5 μm particle size and 2.1×150 mm inner diameter was used for the separations. The column was maintained at 50° C. The mobile phase consisted of two eluents. Eluent A was 0.1% TFA (trifluoroacetic acid) in water and eluent B was 0.1% TFA in acetonitrile (Spectrum Chemical, New Brunswick, N.J.). A linear gradient from 80/20 to 50/50 (A/B) was applied over 30 minutes. The flow rate was 0.4 mL/minute and the UV detection wavelength was set at 214 nm. The total run time was 34 minutes and the sample injection volume was 15 μL.
A sample formulation containing 20 mg/mL of [Glu^22,25,Leu^23,28,31,Aib^29,Lys^26,30]hPTHrP(1-34)NH2 and 20 mg/mL of L-histidine monohydrochloride (His-HCl) in PBS was prepared. A control formulation was also prepared containing 20 mg/mL of [Glu^22,25,Leu^23,28,31,Aib^29,Lys^26,30]hPTHrP(1-34)NH2 in PBS. […] Microneedle arrays were coated with either the sample or the control formulation. The coating was applied by dropwise addition of 50 μL of the formulation to the portion of the array defined by the octagon shaped pattern of microneedles. The flood coated arrays (both sample and control formulation coated) were dried in an oven at 35° C. for 2 hours followed by 30° C. for 15 hours.
After drying, the coated arrays were placed in a storage chamber that was maintained at 40° C. and 96% relative humidity (RH). The [Glu^22,25,Leu^23,28,31,Aib^29,Lys^26,30]hPTHrP(1-34)NH2 content of the coated arrays was determined following storage in the chamber for 1, 3, and 7 days. The initial [Glu^22,25,Leu^23,28,31,Aib^29,Lys^26,30]hPTHrP(1-34)NH2 content was also determined using freshly coated arrays (both sample and control formulation coated). The arrays used to determine initial content were stored in a refrigerator at about 4° C. and analyzed within one day of being prepared. At the designated time point, an array was taken from the chamber and washed with 0.1 N acetic acid (20 mL) to remove the formulation from the array. The resulting wash solution was analyzed for [Glu^22,25,Leu^23,28,31,Aib^29,Lys^26,30]hPTHrP(1-34)NH2 content using the HPLC method described above. The results were quantified against an external standard of [Glu^22,25,Leu^23,28,31,Aib^29,Lys^26,30]hPTHrP(1-34)NH2. At each time point, the percent purity of [Glu^22,25,Leu^23,28,31,Aib^29,Lys^26,30]hPTHrP(1-34)NH2 in the coating was determined by measuring the peak area for [Glu^22,25,Leu^23,28,31,Aib^29,Lys^26,30]hPTHrP(1-34)NH2 in the selected coating and dividing it by the total peak area measured for all [Glu^22,25,Leu^23,28,31,Aib^29,Lys^26,30]hPTHrP(1-34)NH2 related peaks.
The same procedure as described in Example 9 was used with the exception that the sample formulation contained 20 mg/mL of L-arginine hydrochloride, instead of L-histidine monohydrochloride.

## [Glu^22,25,Leu^23,28,31,Aib^29,Lys^26,30]hPTHrP(1-34)NH2
Amino Acid L-Arginine (Arg-HCl 20 mg/mL), Day 1 at 40° C./96% RH
  Percent Purity of [Glu^22,25, Leu^23,28,31, Aib^29, Lys^26,30]hPTHrP(1-34)NH2: 88.4%
Amino Acid L-Arginine (Arg-HCl 20 mg/mL), Day 3 at 40° C./96% RH
  Percent Purity of [Glu^22,25, Leu^23,28,31, Aib^29, Lys^26,30]hPTHrP(1-34)NH2: 76.1%
Amino Acid L-Arginine (Arg-HCl 20 mg/mL), Day 7 at 40° C./96% RH
  Percent Purity of [Glu^22,25, Leu^23,28,31, Aib^29, Lys^26,30]hPTHrP(1-34)NH2: 46.4%
Amino Acid L-Arginine (Arg-HCl 20 mg/mL), Initial
  Percent Purity of [Glu^22,25, Leu^23,28,31, Aib^29, Lys^26,30]hPTHrP(1-34)NH2: 99.0%
Amino Acid L-Histidine (His-HCl 20 mg/mL), Day 1 at 40° C./96% RH
  Percent Purity of [Glu^22,25, Leu^23,28,31, Aib^29, Lys^26,30]hPTHrP(1-34)NH2: 99.3%
Amino Acid L-Histidine (His-HCl 20 mg/mL), Day 3 at 40° C./96% RH
  Percent Purity of [Glu^22,25, Leu^23,28,31, Aib^29, Lys^26,30]hPTHrP(1-34)NH2: 98.9%
Amino Acid L-Histidine (His-HCl 20 mg/mL), Day 7 at 40° C./96% RH
  Percent Purity of [Glu^22,25, Leu^23,28,31, Aib^29, Lys^26,30]hPTHrP(1-34)NH2: 97.9%
Amino Acid L-Histidine (His-HCl 20 mg/mL), Initial
  Percent Purity of [Glu^22,25, Leu^23,28,31, Aib^29, Lys^26,30]hPTHrP(1-34)NH2: 99.4%
Amino Acid None (control), Day 1 at 40° C./96% RH
  Percent Purity of [Glu^22,25, Leu^23,28,31, Aib^29, Lys^26,30]hPTHrP(1-34)NH2: 85.6%
Amino Acid None (control), Day 3 at 40° C./96% RH
  Percent Purity of [Glu^22,25, Leu^23,28,31, Aib^29, Lys^26,30]hPTHrP(1-34)NH2: 53.1%
Amino Acid None (control), Day 7 at 40° C./96% RH
  Percent Purity of [Glu^22,25, Leu^23,28,31, Aib^29, Lys^26,30]hPTHrP(1-34)NH2: 21.1%
Amino Acid None (control), Initial
  Percent Purity of [Glu^22,25, Leu^23,28,31, Aib^29, Lys^26,30]hPTHrP(1-34)NH2: 98.9%
